According to patent publication US6326402A, “Methods for treating viral infections using a compound capable of inhibiting microtubules” (Octamer, Inc., priority 1998, dated 2001):
“Also recorded” adds a separate entry of the source. Like-named read-outs stand apart in the source and are kept apart here.

How the values were obtained:
[1] = test system: viral replication; assay: Anti-viral activity of DIME analogues and homologues (cellular assays and in vivo); type: cell-based
[2] = test system: human cancer cells; conditions: relative to DIME; U.S. Ser. Nos. 08/655,267 and 08/833,272; cited from earlier work
[3] = test system: MDA-MB-231 (human mammary cancer) cells; assay: MDA-MB-231 xenografts in nude mice, tumor volume; type: in vivo, human tumor xenograft in nude mice
Description: The ability of human tumors to grow as xenografts in athymic mice (e.g., nude mice) provides a useful in vivo model for studying the biological response to therapies for human tumors. Since the first successful xenotransplantation of human tumors into athymic mice ([…] et al., 1969, Acta Pathol. Microbial. Scand. 77:758-760), many different human tumor cell lines (e.g., mammary, lung, genitourinary, gastrointestinal, head and neck, glioblastoma, bone and malignant melanomas) have been successfully transplanted and grown into nude mice. Human mammary tumor cell lines, including MCF-7, ZR75-1 and MDA-MB-23 1, have been established as subcutaneous grafts in nude mice (Warri et al., 1991, Intl. J. Cancer 49:616-23; Ozzello et al., 1980, Eur. J. Cancer 16:553-559; Osbourne et al., 1985, Cancer Res. 45:584-590; Siebert et al., 1983, Cancer Res. 43:2223-2239). […] Experimental Protocol MDA-MB-231 (human mammary cancer) cells were obtained from American Type Culture Collection (Rockville, Md.) and maintained in the recommended growth media. Twenty nude mice were each inoculated subcutaneously with MDA-MB-231 cells (10^6 cells/100 […]). To one group of ten mice, DIME was administered by gavage (250 mg/kg, 10 mL/kg in corn oil) once […] per day, 5 days per week, for a total of 32 days. The other (control) group of ten mice was given administered vehicle only according to the same dosing schedule. Tumors were measured twice weekly using a Vernier caliper, and the mean tumor volume was determined at each time point. Comparisons between groups were made using an unpaired, two-tailed t-test and the results were analyzed using analysis of variance.

[4] = Serum half-life and bioavailability of 14C-labeled DIME in mice; type: in vivo
Protocol: Mice were orally dosed with 126 mg/kg 14C-labeled DIME (Compound 1). After dosing, blood sampling times were 15 and 30 minutes and 1, 2, 4, 6, 8 and 24 hours. Aliquots (50 μL) of blood were assayed in a liquid scintillation counter and data expressed as microgram-equivalents per mL.
The blood level data were analyzed by the RSTRIP method (Micromath, Salt Lake City, Utah). Parallel groups of mice were dosed intravenously with 24.5 mg/kg 14C-labeled DIME and blood sampling times were 10, 20 and 30 minutes and 1, 2, 4, 6 and 8 hours.

[5] = test system: tubulin; conditions: cited from earlier work
[6] = test system: tadpole metamorphosis; conditions: as determined by tadpole metamorphosis; cited from earlier work
[7] = test system: tumor cells; conditions: cited from earlier work
[8] = test system: non-malignant mouse pituitary adenoma; conditions: in vivo; cited from earlier work
[9] = test system: HIV-1 (strains HIV-, 89.6 and HIV-1 SF162); assay: HIV replication in stimulated human lymphocytes (reverse transcriptase assay); type: cell-based, HIV-1 in human lymphocytes
Protocol: Inhibition of HIV replication in human white cells by DIME
Lymphocytes were obtained from the Sacramento Blood Bank. After stimulation of cells with phytohaemagglutinine for 3 days, cells were exposed to varying concentrations of DIME (see abscissa of FIG. 1) and incubated for 2 hours at 37° C., 5% CO2, followed by the addition of 3.2×10^5 TCID50 HIV-1 viruses (strains HIV-, 89.6 and HIV-1 SF162). Viral growth was allowed to proceed for 3 days.
(§1) Nocodazole is a well known antitubulin drug. It is highly toxic. Thus, we established a concentration that is relatively harmless to human white cells, i.e. between 0.1 and 1 μM. At […] , nocodazole depressed HIV production by 40% thereby simulating the action of DIME. However DIME is completely nontoxic up to about 320 μM.

[10] = Toxicity, daily oral dosing of nude mice; type: in vivo; conditions: 1 g/kg daily, 12-15 days
Protocol: Ten nude mice were administered a daily oral dose of ^14 C-labeled DIME (Compound 1) (1.0 g/kg, 0.1 ml, in corn oil) for a period of 12-15 days.

[11] = test system: HIV harboring cells; type: in vitro ADME, human
[12] = test system: apoptosis; conditions: disruption of microtubules; cited from earlier work
[13] = Toxicity to human white cells; type: cell-based; conditions: white blood cells
Protocol: as §1

[14] = test system: human lymphocytes
Protocol: Intracellular DIME analysis in human lymphocytes was performed as described (Mendeleyev et al., Intl. J. Oncol. 10:689-695 (1997)) with the aid of ^14 C-DIME. After exposure of lymphocytes to varying concentrations of ^14 C-DIME, cells were centrifuged through di-n-butyl phthalate/dinonylphthalate and separated cell pellets were dissolved in 0.3 M NaOH and counted. Cell volume was determined as reported (Gewert et al. Eur. J. Biochem. 116:487-494 (1981)).

[15] = test system: uptake of iodine into the thyroid; conditions: cited from earlier work
[16] = test system: tubulin; conditions: cited from earlier work; remark: listed apart in the source
[17] = test system: human white cells; conditions: cited from earlier work
[18] = test system: Ras and apoptosis-regulating kinases (ASK1), JNK pathway, MEKK1/SEK1 and c-Jun/AP-1; conditions: cited from earlier work
[19] = compared with vincristine; cited from earlier work

## CCCOc1ccc(Oc2c(I)cc(C(=O)OC)cc2I)cc1 [Compound 3, Methyl 3,5-diiodo-4-(4'-n-propoxyphenoxy)benzoate]
[1]
  anti-viral activity: inactive

## CCOC(=O)c1cc(I)c(Oc2ccc(OC)cc2)c(I)c1 [Compound 5, Ethyl 3,5-diiodo-4-(4'-methoxyphenoxy)benzoate]
[1]
  anti-viral activity: inactive

## COC(=O)c1cc(I)c(Oc2ccc(OC)cc2Cl)c(I)c1 [Compound 14, Methyl 3,5-diiodo-4-(2'-chloro-4'methoxyphenoxy)benzoate]
[2]
  maximal inhibitory action on the growth of human cancer cells as compared to DIME: about 25%

## COC(=O)c1cc(I)c(Oc2ccc(OC)cc2)c(I)c1 [DIME, Methyl 3,5-diiodo-4-(4'-methoxyphenoxy)benzoate]
[3]; 250 mg/kg by gavage, 5 days per week, control 284.6 ± 42.0, p = 0.06
  MDA-MB-231 tumor volume Day 14 ± SEM: 172.0 ± 34.3
[3]; 250 mg/kg by gavage, 5 days per week, control 622.2 ± 58.1, p = 0.02
  MDA-MB-231 tumor volume Day 21 ± SEM: 285.7 ± 62.4
[3]; 250 mg/kg by gavage, 5 days per week, control 979.0 ± 154, p = 0.01
  MDA-MB-231 tumor volume Day 28 ± SEM: 430 ± 85.6
[3]; 250 mg/kg by gavage, 5 days per week, control 1176.6 ± 222.4, p = 0.01
  MDA-MB-231 tumor volume Day 32 ± SEM: 543.8
[3]; 250 mg/kg, vs vehicle control
  % decrease of tumor volume, Day 14: 40%
  % decrease of tumor volume, Day 21: 54%
  % decrease of tumor volume, Day 28: 56%
  % decrease of tumor volume, Day 32: 54%
[3]; non-optimized treatment regimen
  reduction of malignant tumor growth: significant reduction of malignant tumor growth
[4]; i.v., 24.5 mg/kg
  i.v. serum half-life (t1/2): about 4 hours
[4]; intravenous, 24.5 mg/kg, mice, 14C-labeled DIME
  area under the blood concentration-time curve, intravenous: 156 µg·h/mL
[4]; mice, 14C-labeled DIME, 126 mg/kg oral, 24.5 mg/kg i.v.
  half-life (t1/2): 2 to 2.5 h
[4]; oral, 126 mg/kg, mice, 14C-labeled DIME
  area under the blood concentration-time curve, oral: 665.28 µg·h/mL
[4]; serum, route and species not stated
  half-life in serum: about 4 hours
[5]; shown experimentally
  binding to microtubules: binding to cellular microtubules
[6]
  metabolic or cell differentiating activity: no significant metabolic or cell differentiating activity
[7]
  permeation into tumor cells in vivo: selective permeation into tumor cells in vivo
[8]
  growth inhibition of non-malignant mouse pituitary tumor: no inhibitory activity
[9]; cpm, 2 h preincubation, viral growth 3 days
  reverse transcriptase activity in cell supernatant as a function of DIME concentration (FIG. 1): progressively diminishes as a function of DIME concentration; also recorded: decreases with increased "DIME" concentration
[9]; human lymphocytes
  inhibition of HIV replication in human lymphocytes, concentration compared with microtubule disruption in tumor cells: at the same concentration as it disrupts microtubules in tumor cells
[10]
  ill effects on daily oral dosing: No ill effects
[11]
  DIME uptake by HIV infected cells: significant drug uptake
[12]
  induction of apoptosis: induces apoptosis
[1]
  anti-viral activity: highly active
[13]; up to about, read-out: concentration up to which completely nontoxic
  MNTC: ~320 µM
[14]
  DIME uptake by normal or stimulated white cells: do not take up significant quantities
[15]; rats, as compared to thyroxine
  inhibition of uptake of iodine into the thyroid: 15%
[16]
  inhibition of tubulin polymerization: inhibition of tubulin polymerization

## COC(=O)Nc1nc2ccc(C(=O)c3cccs3)cc2[nH]1 [Nocodazole, reference compound]
[9]; Human immunodeficiency virus 1, Lymphocyte, 72 h, read-out: depression of HIV production
  inhibition at 0.1 µM: 40%
[17]
  toxicity (general statement): highly toxic
[13]
  MNTC: 0.1 to 1 µM

## CC(=O)O[C@H]1C(=O)[C@@]2(C)[C@H]([C@H](OC(=O)c3ccccc3)[C@]3(O)C[C@H](OC(=O)[C@H](O)[C@@H](NC(=O)c4ccccc4)c4ccccc4)C(C)=C1C3(C)C)[C@]1(OC(C)=O)CO[C@@H]1C[C@@H]2O [taxol]
[18]
  activation of kinase pathways: can activate both Ras and apoptosis-regulating kinases (ASK1), pathways

## NC(Cc1cc(I)c(Oc2cc(I)c(O)c(I)c2)c(I)c1)C(=O)O (stereo not shown) [thyroxine, reference compound]
[6]
  metabolic or cell differentiating activity: induces cell differentiation
[8]
  growth inhibition of non-malignant mouse pituitary tumor: depress growth
[15]; rat, in vivo
  suppression of iodine uptake by the thyroid: suppresses uptake of iodine by the thyroid

## CC[C@]1(O)C[C@H]2CN(CCc3c([nH]c4ccccc34)[C@@](C(=O)OC)(c3cc4c(cc3OC)N(C=O)[C@H]3[C@@](O)(C(=O)OC)[C@H](OC(C)=O)[C@]5(CC)C=CCN6CC[C@]43[C@@H]65)C2)C1 [vincristine, reference compound]
[5]; may be, relative to DIME
  KD vs tubulin relative to DIME: thousand-fold higher

## CC[C@]1(O)C[C@@H]2CN(CCc3c([nH]c4ccccc34)[C@@](C(=O)OC)(c3cc4c(cc3OC)N(C)[C@H]3[C@@](O)(C(N)=O)[C@H](O)[C@]5(CC)C=CCN6CC[C@]43[C@@H]65)C2)C1 [vindesine, 4-desacetyl vinblastine C-3 carboxamide]
[19]
  neurotoxicity in humans: less neurotoxicity than does vincristine
